Entries after “also recorded” stand apart in the source; their conditions may differ. Counter-ions that a name gives are not always drawn.

This is an account of results in patent publication US10238630B2, “Use of eribulin and poly (ADP ribose) polymerase (PARP) inhibitors as combination therapy for the treatment of cancer” (Eisai R&D Management Co., Ltd., priority 2014, dated 2019).

Assay [1] has as its system MDA-MB-468 human breast cancer xenografts. Briefly: Antitumor activity against subcutaneous MDA-MB-468 human breast cancer xenografts in athymic mice. In kind it is in vivo. The method, then:
MDA-MB-468 human triple negative breast cancer cells are wild type for BRCA1 and 2 and PTEN null. Cells were maintained in monolayer cultures in RPMI-1640 growth medium supplemented with 10% fetal bovine serum at 37° C. in a 5% CO2 humidified incubator. On the day of inoculation, cells were harvested by trypsinization, washed, and resuspended in ice-cold PBS. Female immunodeficient athymic mice were inoculated subcutaneously near the right axillary area with MDA-MB-468 cells (5×10^6) in a 1:1 ratio (50 μL each) with matrigel in a volume of 0.1 mL in phosphate buffered saline using a 26-gauge needle. A total of 60 mice, approximately 8 weeks old were implanted with MDA-MB-468 cells.
E7449 and E7389 were evaluated as single agents and in combination for antitumor activity against MDA-MB-468 human breast cancer xenografts in athymic mice. The experiment consisted of a vehicle control group, an E7449 single agent group, two groups treated with single agent E7389 and 2 combination drug-treated groups (Table 4). Sixty mice were inoculated with MDA-MB-468 cells. On day 7 following implantation, tumor volumes were measured and mice were randomized into the 6 treatment groups based on tumor volume (average of 180 mm^3). Following randomization drug treatment was initiated. Each group was composed of 6 mice for a total of 36 mice on the first day of treatment. E7449 was formulated in 0.5% methyl cellulose and orally administered daily at 100 mg/kg based on body weight at 0.1 mL per 10 g. E7449 was administered once daily for 28 days (starting on Day 7) as a single agent or in combination. E7389 was formulated in saline and was intravenously administered once every 4 days, 3 times (Day 7, 11, and 15) at a dosage of 0.1 or 0.4 mg/kg as single agent or in combination with E7449, based on body weight at 0.1 mL per 10 g. The control group was treated with oral vehicle (0.5% methyl cellulose in water) daily and intravenous vehicle (saline) once every 4 days, 3 times. E7449 or vehicle was administered first and when dosing of all animals was complete, E7389 was administered to animals receiving the combination.
Drug treatment was initiated 7 days post tumor implantation and continued for 28 days. Animals whose tumor measurement reached […] at the longest axis or whose tumor became ulcerated were euthanized prior to study termination. The study was terminated on Day 52. Statistical analysis was performed on Days 35 and 52.
Statistical analysis of the vehicle group (A) versus the drug-treated groups (B, C, D, E, and F) was performed by a one way analysis of variance (ANOVA) for tumor volume followed by Dunnett's multiple comparisons test. The analysis was performed at vehicle endpoint on Day 35 of the study. […]
Background: In xenograft studies the graft and the host belong to different species.

Assay [2] concerns poly (ADP-ribose) (PAR) levels. The assay can be described thus: Pharmacodynamic biomarker analysis of poly (ADP-ribose) (PAR) levels in triple negative breast cancer xenograft tumor lysates. The format is in vivo. The method, then:
PAR levels rebounded at 24 hours in all models. […] In the HCC1806 (wild type for BRCA and PTEN) tumor lysate, E7389 treatment alone increased PAR at 24 and 48 hours.

The subject of a further assay is total Akt levels. The assay can be described thus: Pharmacodynamic biomarker analysis of total Akt and PI3K pathway proteins in tumor lysates by reverse phase protein microarray (RPMA). In kind it is in vivo. How it is done:
Multiple proteins in the P13K pathway were assessed by reverse phase protein microarray (RPMA) in tumor lysates. Akt levels decreased in all models except MDA-MB-231 (wild type for BRCA1 and 2 and PTEN) following single agent and combination treatments. This effect is specific for Akt as no changes in total PI3K, Erk, or Src were observed. Phosphorylated Akt (S473 & T308) decreased by E7389 and combination treatment at 48 hours in MDA-MB-468 tumors. […] No significant effects of treatment were observed on phosphorylated Src (Y527) levels in any tumor models.

The next assay deals with BR1282. Briefly: Antitumor effect in patient-derived xenograft (PDx) BR1282 of triple negative breast cancer in athymic mice. The format is in vivo, human.
The subject of the next assay is BR1474. The assay can be described thus: Antitumor effect in patient-derived xenograft (PDx) BR1474 of triple negative breast cancer in athymic mice. The format is in vivo, human.
Where [3] appears, read: HCC1806 tumors, early time points.

In the case of `C=C1C[C@@H]2CC[C@@]34C[C@H]5OC6[C@@H](O[C@H]7CC[C@H](CC(=O)C[C@@H]8[C@@H](OC)[C@@H](C[C@H](O)CN)O[C@H]8C[C@H]8O[C@@H](CC[C@@H]1O2)C[C@@H](C)C8=C)O[C@@H]7[C@@H]6O3)[C@H]5O4` [E7389, 11, 15:18,21:24,28-triepoxy-7,9-ethano-12,15-methano-9H,15H-furo[3,2-i]furo[2′,3′:5,6]pyrano[4,3-b] [1,4]dioxacyclopentacosin-5(4H)-one, 2-[(2S)-3-amino-2-hydroxypropyl]hexacosahydro-3-methoxy-26-methyl-20,27-bis(methylene)-, (2R,3R,3aS,7R,8aS,9S,10aR,11S,12R,13aR,13bS,15S,18S,21S,24S,26R,28R,29aS)-methanesulfonate (salt)], the “tumor re-growth following treatment” value in assay [1] (E7389 0.1 mg/kg IV Q4Dx3, single agent) is given as “began re-growing within days of final E7389 dose”; in assay [1] (E7389 0.4 mg/kg IV Q4Dx3, single agent, up to Day 52) it was “became tumor-free with no palpable tumors observed up to the date of study termination”. Moreover, the “antitumor effect (tumor volume)” value in assay [1] (E7389 0.1 and 0.4 mg/kg IV Q4Dx3, single agent) is reported as “Tumor regression”; in the assay on BR1474 (E7389 0.3 mg/kg, single agent), “enhanced antitumor activity”. Besides, the “PARP activity in tumor lysates” value in assay [2] (E7389 treatment alone) was “did not inhibit PARP activity”. In addition, the “PAR levels in tumor lysates” value in assay [2] (HCC1806 tumor lysate, E7389 alone, 24 and 48 hours) was “increased PAR”. Further, the “phosphorylated Akt (S473 & T308)” value in the assay on total Akt levels (MDA-MB-468 tumors, 48 hours) is recorded as “decreased”. The “antitumor effect (tumor growth)” value is on record as “inhibited tumor growth to a similar degree” in the assay with BR1282 (E7389 0.3 mg/kg, single agent) and “had no impact on the tumor growth” in the assay with BR1282 (E7389 single agent, 0.1 mg/kg (dose as read from the sentence)).
`O=c1[nH]nc2c3c(cccc13)N=C(CN1Cc3ccccc3C1)N2` [E7449]: the “antitumor effect (tumor volume)” value in assay [1] (E7449 100 mg/kg PO QDx28, single agent, 100 mg/kg) is “did not significantly inhibit tumor growth; also recorded: No antitumor activity”. Besides, the “PARP inhibition / PAR levels in tumor lysates” value in assay [2] (6 hours, MDA-MB-436, MDA-MB-468, MDA-MB-231 and HCC1806 tumor lysates) is on record as “complete PARP inhibition”. In assay [2] (24 hours, all four models), the “PAR levels in tumor lysates” value is reported as “rebounded”. In the assay with total Akt levels (setting [3]), the “phosphorylated Akt (S473 & T308)” value is reported as “Increased” and the “phosphorylated Erk (T202/Y204)” value is listed as “Increased”. The “antitumor effect (tumor growth)” value with BR1282 (E7449 single agent) was “had no impact on the tumor growth”. For the same molecule, in the assay with BR1474 (E7449 as a single agent), the “sensitivity of the model among the three PDx models” value is recorded as “most sensitive”.
